For series [1] the following is noted: 96 kPa, Liquid; for viscosity: Cone and plate viscometry; for electrical conductivity: Frequency=0.001 MHz, Alternating current cell with electrodes.
Series [2] can be described thus: xn = mol fraction of the nth substance listed. The settings on record: 96 kPa, Liquid, Cone and plate viscometry, x2 = 0.

Molecules are shown by their SMILES. ± gives the expanded uncertainty stated by the source.

This note sets out measurements from the NIST ThermoML archive (doi:10.1016/j.jct.2019.04.017).

The term viscosity denotes the internal friction of a fluid under shear. Consider `OCC(O)CO` [glycerol], for which the viscosity in series [1] (288.1 K) was determined as 2180 ± 380 mPa·s; in series [1] (298.1 K) it was 933.8 ± 110 mPa·s; in series [1] (308.1 K) it was 420.3 ± 39 mPa·s; in series [1] (318.1 K), 195.6 ± 15 mPa·s; in series [1] (328.1 K), 104.3 ± 7.3 mPa·s.

As to `OCC(O)CO` [glycerol] + C1CCC2=NCCCN2CC1, the viscosity was found to be 2180 ± 380 mPa·s in series [2] (288.1 K); 933.8 ± 110 mPa·s in series [2] (298.1 K); 420.3 ± 39 mPa·s in series [2] (308.1 K); 195.6 ± 15 mPa·s in series [2] (318.1 K); 104.3 ± 7.3 mPa·s in series [2] (328.1 K).

Consider `C1CCC2=NCCCN2CC1` [1,8-diaza-7-bicyclo[5.4.0]undecene], for which the viscosity in series [1] (288.1 K) worked out at 15.35 ± 1 mPa·s; in series [1] (298.1 K), 10.32 ± 0.67 mPa·s; in series [1] (308.1 K), 8.17 ± 0.53 mPa·s; in series [1] (318.1 K) it was 6.08 ± 0.39 mPa·s; in series [1] (328.1 K), 4.91 ± 0.32 mPa·s. For the same compound, the electrical conductivity in series [1] (288.1 K) is 0.000222 ± 8.8e-06 S/m; in series [1] (293.1 K), 0.000241 ± 9.5e-06 S/m; in series [1] (298.1 K), 0.000267 ± 1.1e-05 S/m; in series [1] (303.1 K), 0.000297 ± 1.2e-05 S/m; in series [1] (308.1 K), 0.00032 ± 1.3e-05 S/m; in series [1] (313.1 K), 0.000356 ± 1.4e-05 S/m. The results for the electrical conductivity in series [1] (318.1 K), in series [1] (323.1 K) and in series [1] (328.1 K) were 0.000382 ± 1.5e-05 S/m, 0.000423 ± 1.7e-05 S/m and 0.000444 ± 1.8e-05 S/m, respectively.
